Experimental data as given in PubChem BioAssay AID179 (DTP/NCI, 2004).
Activity calls are given as the source filed them.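 How the source made its calls: active means compounds giving half or more protection of infected cells from virus-caused growth loss, again on retest; inactive means the rest.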 Where a SMILES comes first, the peptide text is derived from it. The star is where a group is joined. Boc = CC(C)(C)OC(=O)*

Tested on: CEM cells HIV-1 protection, formazan growth assay
Assay: NCI AIDS Antiviral Assay
Conditions: for IC50: measured here: growth of uninfected CEM cells
Procedure, shortened: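 CEM (human) cells, HIV-1 infected vs uninfected, 5-point dosing, formazan growth read-out. Retest threshold 50% protection.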

| SMILES | EC50 | IC50 | outcome |
| --- | --- | --- | --- |
| Cc1ccc2[nH]c3c(c2c1)C1CCC(C(C)(C)C)CC1C1C(=O)N(c2ccc(Oc4ccccc4)cc2)C(=O)C31 (stereo not drawn) | > 200 µM | 10.5 µM | – |
| COc1ccc(CC2c3c(cc(OC)c(OC)c3OC)CCN2C)cc1OC (stereo not drawn) | > 589 µM | 158 µM | – |
| Cn1c(=O)n(C2(C)CSC2)c2ccccc21 | > 562 µM | 178 µM | – |
| C/C(=N\NC(=S)Nc1ccc(S(N)(=O)=O)cc1)c1ccccn1 | > 145 µM | 8.51 µM | – |
| CN(C(=O)/C=C/c1ccccc1)C1C2CN3CCC(O2)C13 (stereo not drawn) | – | – | inactive |
| COc1ccc(-c2ccccc2)c(N/N=C2\CCCNC2=O)c1 | – | – | inactive |
| CCCC/C=C(/CCCBr)[Si](C)(C)C | > 339 µM | > 339 µM | – |
| N#CCCN(CCCN(C(=O)Nc1ccc(NC(=O)N(CCCN(CCC#N)C(N)=O)c2ccccc2)cc1)c1ccccc1)C(N)=O | > 200 µM | > 200 µM | – |
| CCN1CCC(O)(c2ccc(Cl)cc2)C(C(=O)c2ccc(Cl)cc2)C1 (stereo not drawn) | – | – | inactive |
| C=CCCC1CCCCC/C1=N\N(C)C (stereo not drawn) | > 200 µM | > 200 µM | – |
| CC(=O)C1=CC=C/C1=N\Nc1ccccc1 | > 200 µM | 11 µM | – |
| O=C1CSC(/C=C/c2ccccc2)N1c1ccc(-n2c(-c3ccccc3)nc3ccccc3c2=O)cc1 (stereo not drawn) | > 200 µM | 105 µM | – |
| C=CCOCCCCC(C(C)=O)C(=O)OC (stereo not drawn) | > 251 µM | > 251 µM | – |
| CC(C)(C)C1COP(=S)(C(C)(C)C)OC1 (stereo not drawn) | > 14.5 µM | > 14.5 µM | – |
| CC1(C)OC2CC3CC(OC3=O)C2O1 (stereo not drawn) | > 832 µM | > 832 µM | – |
| C#CC(O)/C=C/C(O)CCCC(O)CC#CC(O)C#CCCCCC(O)/C=C/CCCC(=O)CCCCCCCCCCCCCCCC(O)C(O)C#CC(=O)O (stereo not drawn) | > 50.1 µM | 28.2 µM | – |
| CC(=O)CC1(C)OC(N)=C(C#N)C1(C#N)C#N (stereo not drawn) | > 200 µM | 162 µM | – |
| Cc1cc2c(c3c1c1ccccc1n3C)C(=O)c1ccccc1C2=O | > 1.7 µM | > 1.7 µM | – |
| CC1(C)Cc2c(C#N)c(N)c3c(c2CO1)C(=O)OC3=O | > 19.1 µM | > 19.1 µM | – |
| NCCCN(CCCN)CCCNCc1c2ccccc2c(CNCCCN(CCCN)CCCN)c2ccccc12 | 4.79 µM | 16.6 µM | – |
| COc1ccc2c(c1OC)C(=O)OC2c1c2c(c(OC)c3c1OCO3)C(C1OC(=O)c3c1ccc(OC)c3OC)N(C)CC2 (stereo not drawn) | – | – | inactive |

| SMILES | EC50 | IC50 | outcome |
| --- | --- | --- | --- |
| COC1C(O)CC(OC2CC(Oc3cc4cc5c(c(O)c4c(O)c3C)C(=O)[C@@H](OC3CC(OC4CC(OC6CC(C)(O)C(OC(C)=O)C(C)O6)C(O)C(C)O4)C(O)C(C)O3)[C@H]([C@H](OC)C(=O)[C@@H](O)[C@@H](C)O)C5)OC(C)C2OC(C)=O)OC1C (stereo partly drawn) | > 6.17 µM | 0.00195 µM | – |
| COc1cccc(CCn2c(N)c(-c3ccccc3)c3ccc([N+](=O)[O-])cc3c2=O)c1 | > 200 µM | 7.41 µM | – |
| NC(Cc1c[nH]c2ccccc12)P(=O)(O)O (stereo not drawn) | > 200 µM | > 200 µM | – |
| C=CCSCn1ncc2ccc([N+](=O)[O-])cc21 | > 200 µM | 33.9 µM | – |
| CC(C)(C)C1CCC2c3c([nH]c4ccccc34)C3C(=O)N(c4ccc(Cl)cc4)C(=O)C3C2C1 (stereo not drawn) | > 200 µM | > 100 µM | – |
| NNC1=N/C(=C\c2ccco2)C(Cl)=N1 | > 200 µM | 38 µM | – |
| O=C1Cc2c(-c3ccccc3)cc(-c3ccccc3)nc2-c2ccccc2N1 | > 200 µM | 6.17 µM | – |
| CCN(CC)C(=O)c1cc(=O)c(C)c2oc3c(C)c(O)c(N)c(C(=O)N(CC)CC)c3nc1-2 | > 200 µM | 110 µM | – |
| COc1ccc2cccc(C(=O)c3ccc(C)c4c3CCC4)c2c1 | – | – | inactive |
| CCOC(=O)C(CC(C)C)NC(=O)C(Cc1ccccc1)NC(=O)CNC(=O)OC(C)(C)C (stereo not drawn) (Boc-Gly-Phe-Leu-OEt; configuration not given here) | > 200 µM | 8.51 µM | – |
| COc1cc(O)c(C(=O)C2Cc3ccccc32)c(OC)c1 (stereo not drawn) | – | – | inactive |
| CSc1nc(NC2OCC(O)C(O)C2O)c(N)c(=O)[nH]1 (stereo not drawn) | – | – | inactive |
| O=C1OC(=O)c2c1ccc1ccc(Cl)cc21 | – | – | inactive |
| NC(N)=NN=C1CCCCC1 | > 200 µM | > 200 µM | – |
| CCC1(COC(NC(=O)c2ccccc2)(C(F)(F)F)C(F)(F)F)COC1 | > 200 µM | 115 µM | – |
| CC(=O)Nc1ccc(C(=O)NN2C(=O)C(Cl)C2c2ccccc2O)cc1 (stereo not drawn) | > 200 µM | 31.6 µM | – |
| Cc1ccc(/C=N\NC(=O)c2ccncc2)s1 | > 200 µM | 117 µM | – |
| CCc1ccccc1NC(=O)C1=C(C)NC(C)=C(C(=O)Nc2ccccc2CC)C1c1ccc2c(c1)OCO2 | > 13.8 µM | > 13.8 µM | – |
| CN(C)C(=O)/N=C1\SC(=Nc2ccccc2)C(=Nc2ccccc2)N1c1ccc([N+](=O)[O-])cc1 | – | – | inactive |
| Cc1ccc(NC(=O)CC2C(=O)Nc3ccccc3S2=O)c(C)c1 (stereo not drawn) | > 15.1 µM | > 15.1 µM | – |
| O=C1OC(=O)C2C1C1(c3ccccc3)C(=O)C2(c2ccccc2)C(c2ccccc2)=C1c1ccccc1 (stereo not drawn) | – | – | inactive |

| SMILES | EC50 | IC50 | outcome |
| --- | --- | --- | --- |
| CCOC(=O)N1C(=S)C(C(=O)OC)(C(=O)OC)N=C1C | > 200 µM | > 200 µM | – |
| COc1cccc(CC2Cc3ccccc3CC(=O)N2)c1 (stereo not drawn) | > 200 µM | 38 µM | – |
| COC1(OC)CCCCC2c3cccc(OC(C)=O)c3C21OC(C)=O (stereo not drawn) | 72.4 µM | 214 µM | – |
| C/C1=C/C2OC(=O)C3(C)C2C(CC2(C)OC1=CC2=O)OC3(O)C(C)C (stereo not drawn) | > 102 µM | 10.5 µM | – |
| CC(C)OC(=O)/C=C/C(=O)O/C=C/[N+](=O)[O-] | > 200 µM | 105 µM | – |
| CC(=O)N=S(NC(=O)c1ccc(C)cc1)C(Cl)(Cl)Cl (stereo not drawn) | > 200 µM | 33.9 µM | – |
| CCCCCCCCCCCC(=O)c1c(O)cc(C)oc1=O | > 100 µM | 5.37 µM | – |
| O=C(O)c1nc(-c2ccccc2)ncc1-c1nnnn1-c1ccccc1 | > 200 µM | > 200 µM | – |
| C=CCNC(=S)N1CC(C)C(=O)Nc2cc(Cl)ccc21 (stereo not drawn) | > 200 µM | > 200 µM | – |
| COc1ccc(Cc2c(N)[nH]c(=O)n(C)c2=O)cc1 | > 200 µM | 89.1 µM | – |
| O=c1c(-c2cccc3ccccc23)c(-c2cccc3ccccc23)c1=O | – | – | inactive |
| [CH2+][B-]1(C)n2cc(Br)c[n+]2[B-](C)(C)[n+]2cc(Br)cn21 | > 200 µM | 105 µM | – |
| COc1ccc([C@H]2Oc3cc(OCc4ccccc4)c(O)cc3[C@@H]2C)c(OC)c1 | > 200 µM | 38.9 µM | – |
| C=CCC1(Sc2ccccn2)Sc2ccc3ccccc3c2-c2c(ccc3ccccc23)S1 | > 100 µM | > 100 µM | – |
| O=C(CCN1CCN(c2cccc(Cl)c2)CC1)N1CCc2c([nH]c3ccccc23)C1c1cccnc1 (stereo not drawn) | > 10.5 µM | > 10.5 µM | – |
| O=C(Cn1ccnc1[N+](=O)[O-])NCCO | – | – | inactive |
| CC(O)c1nc(C#N)c(N)o1 (stereo not drawn) | 3.31 µM | > 200 µM | – |
| O=C1C2=C(c3ccccc31)C(c1ccccc1)N1C(=O)CSC1=N2 (stereo not drawn) | > 77.6 µM | 34.7 µM | – |
| CN=C(NC)N(C)c1nc(=[N+](C)C)ss1 | – | – | inactive |
| O=c1[nH]c(O)c(/C=N\C(=S)Nc2cc(Cl)ccc2Cl)c(=O)[nH]1 | > 200 µM | 162 µM | – |
| COc1ccc(NC(=S)NNC(=O)c2cc(-c3ccccc3)nc3ccccc23)cc1 | > 200 µM | 35.5 µM | – |
